According to patent US7999069B2, “EphB receptor-binding peptides” (Sanford-Burnham Medical Research Institute, priority 2005, dated 2011):
No end group written: not given here.

Legend:
EphB6 = biological target: T1, EphB6 (Homo sapiens, UniProt O15197); assay: Phage clone binding to immobilized EphB6 ectodomain Fc (phage ELISA); settings: phage clone displaying the peptide
T1 construct: Histidine-tagged EphB ectodomain Fc fusion proteins were incubated overnight
T1 sequence (O15197 32-594 limits assumed): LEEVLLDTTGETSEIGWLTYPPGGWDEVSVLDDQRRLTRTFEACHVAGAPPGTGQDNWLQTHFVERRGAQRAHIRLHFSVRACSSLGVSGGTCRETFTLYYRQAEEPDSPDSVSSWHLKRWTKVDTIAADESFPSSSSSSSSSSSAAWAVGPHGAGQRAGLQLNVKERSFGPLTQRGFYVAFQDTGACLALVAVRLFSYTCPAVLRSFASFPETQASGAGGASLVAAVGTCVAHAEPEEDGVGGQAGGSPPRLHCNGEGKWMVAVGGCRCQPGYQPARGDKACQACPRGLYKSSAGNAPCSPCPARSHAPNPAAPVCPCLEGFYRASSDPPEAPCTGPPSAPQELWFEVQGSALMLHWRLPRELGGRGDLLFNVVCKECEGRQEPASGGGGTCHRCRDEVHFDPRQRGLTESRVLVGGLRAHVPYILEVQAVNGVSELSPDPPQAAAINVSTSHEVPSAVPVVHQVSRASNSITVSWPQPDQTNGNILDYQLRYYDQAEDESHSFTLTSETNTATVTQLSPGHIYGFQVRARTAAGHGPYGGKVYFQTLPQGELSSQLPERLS
Protocol: Phage binding to Ni-NTA wells coated with 1 μg/ml Eph receptor Fe fusion proteins was quantified using an anti-phage antibody conjugated to horseradish peroxidase (M13 phage detection kit, Amersham Biosciences) with 2,2-azino-bis(3-ethylbenzothiazoline-6-sulfonic acid) as a substrate. The background that was subtracted from the measurements was determined without EphB4 Fc. […] In round 1 of panning, 2×10^11 plaque forming units (PFUs) of the phage library in 100 μl binding buffer were incubated for 1 hour at room temperature in the EphB receptor-coated wells.

EphB3 = biological target: T2, EphB3 (Homo sapiens, UniProt P54753); assay: Phage clone binding to immobilized EphB3 ectodomain Fc (phage ELISA); settings: phage clone displaying the peptide
T2 construct: Histidine-tagged EphB ectodomain Fc fusion proteins were incubated overnight
T2 sequence (P54753 34-559 limits assumed): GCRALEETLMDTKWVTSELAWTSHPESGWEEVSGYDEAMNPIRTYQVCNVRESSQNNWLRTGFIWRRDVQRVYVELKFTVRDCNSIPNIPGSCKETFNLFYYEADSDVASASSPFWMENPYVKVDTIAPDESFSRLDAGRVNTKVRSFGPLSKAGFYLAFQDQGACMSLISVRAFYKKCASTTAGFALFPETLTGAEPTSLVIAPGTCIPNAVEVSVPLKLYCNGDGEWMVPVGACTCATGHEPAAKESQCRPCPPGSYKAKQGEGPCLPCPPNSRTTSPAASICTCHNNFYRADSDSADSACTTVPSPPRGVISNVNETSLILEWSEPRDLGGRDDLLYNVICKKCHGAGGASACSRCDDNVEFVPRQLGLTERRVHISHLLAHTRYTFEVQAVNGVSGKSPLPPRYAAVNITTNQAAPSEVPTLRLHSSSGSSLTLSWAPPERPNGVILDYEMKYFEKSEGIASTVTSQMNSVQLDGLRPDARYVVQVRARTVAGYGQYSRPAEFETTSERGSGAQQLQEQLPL
Protocol: To identify EphB receptor-binding peptides, an M13 phage library (R&D Systems, Minneapolis, Minn.) displaying random 12 amino acid-long peptides was panned on the ectodomains of EphB1, EphB2, or EphB4 fused to human Fc and immobilized on nickel-coated wells through a carboxy-terminal hexahistidine tag (FIG. 1). Phage binding to Ni-NTA wells coated with 1 μg/ml Eph receptor Fe fusion proteins was quantified using an anti-phage antibody conjugated to horseradish peroxidase (M13 phage detection kit, Amersham Biosciences) with 2,2-azino-bis(3-ethylbenzothiazoline-6-sulfonic acid) as a substrate. The background that was subtracted from the measurements was determined without EphB4 Fc. Histidine-tagged EphB ectodomain Fc fusion proteins were incubated overnight at 4° C. in nickel-nitrilotriacetic acid (Ni-NTA)-coated ELISA wells at concentrations of 10 μg/ml in Tris-buffered saline (TBS) (150 mM NaCl, 50 mM Tris-HCl, pH 7.5), except for EphB2 and EphB4 rounds 3.2 and 4, which were with 1 μg/ml. […] Phage recovered after the first round of panning (1*) were not quantified to ensure that rare clones would be recovered.
The binding selectivity of the phage clones for the different mammalian EphB receptors was also determined (Table 1). […]

- EphB Receptor Specificity (% Binding) B6 (EphB6): 0%
- EphB Receptor Specificity (% Binding) B3 (EphB3): 1%
Sequence: EWLSPNLAPSVR [compound 1]
